In brackets after ≈: the same amount, converted by molar mass. Read-outs that look alike come from different tables or passages of the source. Where a SMILES comes first, the peptide text is derived from it. Bridges are numbered along the chain shown (N, C = ends). [ ]: non-standard residue; d: D form. The star is where a group is joined. Val(Nα-amidino) = CC(C)[C@H](NC(=N)N)C(=O)*; Hyp = O=C(O)[C@@H]1C[C@@H](O)CN1; Pen = CC(C)(S)[C@H](N)C(=O)O; dDab = NCC[C@@H](N)C(=O)O; Dab = NCC[C@H](N)C(=O)O
Assays:
[1] = Tolerability (single day, IV bolus q12h); format: in vivo, CD-1 mice; conditions: for Tolerability (IV bolus, q12h): mice died: single day
Experimental: (§1) Two different study designs were used to determine the potential toxicity of these compounds, when given BID via intravenous bolus (injection) 12 hours apart to CD-1 mice. In the first type of study, male mice were dosed on a single day at three escalating dose levels (three mice per group), while the second type of study male mice (nine mice per group) were dosed for seven consecutive days with the same administration regimen (q12h). […] Detailed clinical observations were conducted up to at least 3 hours after the first daily dosing and up to at least 1 hour after the second daily dosing. In addition, the Irwin battery of tests was used to assess the mice neurobiological and physiological state during the single day study at 30, 60, 120, 180, and 240 min after the first administration. The following parameters were included in the observations: occurrence of abnormal gait, catalepsy, piloerection, abnormal respiration, increase or decrease in spontaneous activity, spontaneous activity following audible stimuli (tapping on side of cage), touch response, and body tonus. Any additional symptoms observed were also reported.

Plasma protein binding [2] = format: in vitro ADME, mouse; conditions: mass balance method, ultrafiltration 30-kDa cutoff; pooled mouse plasma adjusted to pH 7.5; 10 mg/liter; 30 min at 37°C; biological replicates; read-out: Plasma protein binding (% bound) Mouse (converted)
Experimental: (§2) After ultrafiltration, protein binding was determined by subtracting the percentage of compound in ultrafiltrate from the total amount of compound in spiked plasma (table S4A).

Serratia marcescens = conditions: CLSI microdilution method; LptA sequence identity 64
Experimental: (§3) MIC assays [Clinical and Laboratory Standards Institute (CLSI) methodology] and serial passage studies were performed as described by Luther et al. ([6]). […] Resistant mutants were isolated, and their MIC values were determined and sent to Microbes NG (Birmingham, United Kingdom) for whole-genome sequencing and bioinformatic analysis.

Proteus mirabilis = conditions: CLSI microdilution method; LptA sequence identity 54
Experimental: as §3

Hafnia alvei = conditions: CLSI microdilution method; LptA sequence identity 72
Experimental: as §3

Enterobacter cloacae = conditions: CLSI microdilution method; LptA sequence identity 86
Experimental: as §3

Providencia stuartii = conditions: CLSI microdilution method; LptA sequence identity 55
Experimental: as §3

Escherichia coli = conditions: CLSI microdilution method; LptA sequence identity 100
Experimental: as §3

Moraxella catarrhalis = conditions: CLSI microdilution method; LptA sequence identity 28
Experimental: as §3

Klebsiella pneumoniae = conditions: CLSI microdilution method; LptA sequence identity 88
Experimental: as §3

Raoultella planticola = conditions: CLSI microdilution method; LptA sequence identity 84
Experimental: as §3

Providencia rettgeri = conditions: CLSI microdilution method; LptA sequence identity 54
Experimental: as §3

Enterobacter aerogenes = conditions: CLSI microdilution method; LptA sequence identity 88
Experimental: as §3

Klebsiella oxytoca = conditions: CLSI microdilution method; LptA sequence identity 100
Experimental: as §3

Shigella flexneri = conditions: CLSI microdilution method; LptA sequence identity 100
Experimental: as §3

[3] = system: Stenotrophomonas maltophilia; conditions: CLSI microdilution method; LptA sequence identity 25
Experimental: as §3

Morganella morganii = conditions: CLSI microdilution method; LptA sequence identity 57
Experimental: as §3

Citrobacter freundii = conditions: CLSI microdilution method; LptA sequence identity 92
Experimental: as §3

Proteus vulgaris = conditions: CLSI microdilution method; LptA sequence identity 55
Experimental: as §3

in vitro = format: cell-based; conditions: human
Experimental: The cytotoxicity of compounds was determined by determining the number of viable cells using the Sigma Cell Counting Kit-8 (WST-8). HeLa cells were incubated at 37°C and 5% CO2 for 24 hours, after which the medium was replaced with fresh medium containing dilutions of compounds. […]

[4] = system: K. pneumoniae NCTC 13443 (NDM-1) LptA Q62L mutant; assay: microbe, parasite or virus in culture; conditions: for MIC K. pneumoniae NCTC 13443 (NDM-1) Q62L mutant: CLSI method, clone harboring LptA Q62L
Summary of the method: (§4)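 First, MICs were measured per CLSI. Next, organisms underwent serial passage. Finally, resistant mutants were isolated, their MICs determined, and whole genomes sequenced with bioinformatic analysis.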

[5] = system: E. coli ATCC 25922 (parent / WT); assay: microbe, parasite or virus in culture; conditions: for MIC E. coli ATCC 25922 Parent: CLSI method, parent strain
Summary of the method: as §4

[6] = system: K. pneumoniae ATCC 43816 (parent / WT); assay: microbe, parasite or virus in culture; conditions: ATCC 43816
Summary of the method: as §4

[7] = system: K. pneumoniae NCTC 13443 (NDM-1) (parent / WT); assay: microbe, parasite or virus in culture; conditions: for MIC K. pneumoniae NCTC 13443 (NDM-1) Parent: CLSI method, parent strain
Summary of the method: as §4

[8] = system: E. coli ATCC 25922 LptA Q62L mutant; assay: microbe, parasite or virus in culture; conditions: for MIC E. coli ATCC 25922 Q62L mutant: CLSI method, clone harboring LptA Q62L
Summary of the method: as §4

human red blood cells = assay: Haemolysis; format: cell-based; conditions: PBS-washed human red blood cells; 1 h at 200 mg/liter, 37°C; OD 540 nm; versus 100% lysis control 2.5% Triton X-100; biological replicates
Experimental: To test their hemolytic potential, compounds were incubated in the presence of phosphate-buffered saline (PBS)–washed human red blood cells. After 1-hour incubation at 200 mg/liter and 37°C, the samples were centrifuged (3220g), the supernatants were diluted in Dulbecco’s PBS, and optical density at 540 nm was determined. The hemolysis induced by the compound was calculated versus a 100% lysis control prepared with 2.5% Triton X-100 (table S4A).

[9] = 7-day repeated dosing (IV bolus q12h); format: in vivo, CD-1 mice; conditions: mice, intravenous BID 15 mg/kg per dose, seven consecutive days
Experimental: as §1

Plasma protein binding [10] = format: in vitro ADME, human; conditions: mass balance method, ultrafiltration 30-kDa cutoff; pooled human plasma adjusted to pH 7.5; 10 mg/liter; 30 min at 37°C; biological replicates; read-out: Plasma protein binding (% bound) Human (converted)
Experimental: as §2

[11] = system: panel of 121 Enterobacteriaceae including CRE, MDR, and XDR isolates; assay: organism not typed; conditions: for MIC50 (n=121): CLSI microdilution method, 121 isolates
Experimental: as §3

SMILES	fraction unbound at 30 min, 10 mg/liter (Plasma protein binding [2])	MIC Serratia marcescens (Serratia marcescens) [µg/mL]	MIC Proteus mirabilis (Proteus mirabilis) [µg/mL]	MIC Hafnia alvei (Hafnia alvei) [µg/mL]	MIC Enterobacter cloacae (Enterobacter cloacae) [µg/mL]	MIC Providencia stuartii (Providencia stuartii) [µg/mL]	MIC Escherichia coli (Escherichia coli) [µg/mL]	MIC Moraxella catarrhalis (Moraxella catarrhalis) [µg/mL]	MIC Klebsiella pneumoniae (Klebsiella pneumoniae) [µg/mL]	MIC Raoultella planticola (Raoultella planticola) [µg/mL]	MIC Providencia rettgeri (Providencia rettgeri) [µg/mL]	MIC Enterobacter aerogenes (Enterobacter aerogenes) [µg/mL]	MIC Klebsiella oxytoca (Klebsiella oxytoca) [µg/mL]	MIC Shigella flexneri (Shigella flexneri) [µg/mL]	MIC Stenotrophomonas maltophilia [3] [µg/mL]	MIC Morganella morganii (Morganella morganii) [µg/mL]	MIC Citrobacter freundii (Citrobacter freundii) [µg/mL]	MIC Proteus vulgaris (Proteus vulgaris) [µg/mL]	IC50 at 48 h (in vitro) [µM]	MIC K. pneumoniae NCTC 13443 (NDM-1) Q62L mutant [4] [micrograms per milliliter]	also measured
CC[C@H](C)[C@H](NC(=O)[C@@H]1C[C@@H](O)CN1C(=O)[C@@H](N)C(C)C)C(=O)N[C@H](C(=O)N[C@@H](Cc1ccc(O)cc1)C(=O)N[C@@H]1C(=O)N[C@@H](CC(N)=O)C(=O)N[C@@H](CCCNC(=N)N)C(=O)N[C@@H](CCN)C(=O)N[C@@H]([C@@H](C)O)C(=O)N[C@H](CCN)C(=O)N[C@@H](CCCCN)C(=O)N[C@H](C(=O)N[C@@H](CCN)C(=O)N[C@@H](CCCNC(=N)N)C(=O)N[C@@H](Cc2ccc(O)cc2)C(=O)O)CSSC1(C)C)[C@@H](C)O [Compound 6] (H-V[Hyp]ITY[Pen]NR[Dab]T[dDab]KC[Dab]RY-OH; disulfide 6-13)	0.11	> 8	> 8	2 (≈ 1.02 µM)	0.13 (≈ 0.0663 µM)	> 8	0.03 (≈ 0.0153 µM)	> 8	0.13 (≈ 0.0663 µM)	0.06 (≈ 0.0306 µM)	> 8	0.5 (≈ 0.255 µM)	0.25 (≈ 0.128 µM)	0.03 (≈ 0.0153 µM)	> 8	> 8	0.13 (≈ 0.0663 µM)	> 8	1160	>8	Tolerability (IV bolus, q12h): mice died ([1]; at 40 mg/kg/day q12h): 0/3; MIC E. coli ATCC 25922 Parent [5]: 0.125 micrograms per milliliter; MIC K. pneumoniae ATCC 43816 Parent [6]: 0.25 micrograms per milliliter; MIC K. pneumoniae NCTC 13443 (NDM-1) Parent [7]: 2 micrograms per milliliter; MIC E. coli ATCC 25922 Q62L mutant [8]: 2 micrograms per milliliter; Haemolysis % at 0.2 g/L (human red blood cells): 0%; Tolerability in repeat dose safety study [9]: well tolerated with no adverse events or detectable kidney toxicity; fraction unbound at 30 min, 10 mg/liter (Plasma protein binding [10]): 0.38; MIC50 (n=121) [11]: 0.25 µg/mL (≈ 0.128 µM); MIC90 ([11]; panel of 121 Enterobacteriaceae including CRE, MDR, and XDR isolates): 1 µg/mL (≈ 0.51 µM)
CC[C@H](C)[C@H](NC(=O)[C@@H]1C[C@@H](O)CN1C(=O)[C@@H](NC(=N)N)C(C)C)C(=O)N[C@H](C(=O)N[C@@H](Cc1ccc(O)cc1)C(=O)N[C@@H]1C(=O)N[C@@H](CC(N)=O)C(=O)N[C@@H](CCCNC(=N)N)C(=O)N[C@@H](CCN)C(=O)N[C@@H]([C@@H](C)O)C(=O)N[C@H](CCN)C(=O)N[C@@H](CCCCN)C(=O)N[C@H](C(=O)N[C@@H](CCN)C(=O)N[C@@H](CCCNC(=N)N)C(=O)N[C@@H](Cc2ccc(O)cc2)C(=O)O)CSSC1(C)C)[C@@H](C)O [Compound 7] ({Val(Nα-amidino)}-[Hyp]ITY[Pen]NR[Dab]T[dDab]KC[Dab]RY-OH; disulfide 5-12)	0.06	> 8	> 8	4 (≈ 2 µM)	0.5 (≈ 0.25 µM)	> 8	0.06 (≈ 0.03 µM)	> 8	0.25 (≈ 0.125 µM)	0.25 (≈ 0.125 µM)	> 8	1 (≈ 0.5 µM)	0.5 (≈ 0.25 µM)	0.06 (≈ 0.03 µM)	> 8	> 8	0.5 (≈ 0.25 µM)	> 8	456	>8	Tolerability (IV bolus, q12h): mice died ([1]; at 30 mg/kg/day q12h): 0/3; Tolerated dose, intravenous BID ([1]; mice, intravenous, twice a day (q12h)): up to 30 mg/kg per day; MIC Klebsiella pneumoniae NCTC 13443 LptA Q62L (5x) ([4]; Table S9 panel): > 16 µg/mL; MIC E. coli ATCC 25922 Parent [5]: 0.063 micrograms per milliliter; MIC Escherichia coli ATCC 25922 WT ([5]; Table S9 panel, WT): 0.125 µg/mL (≈ 0.0625 µM); MIC K. pneumoniae ATCC 43816 Parent [6]: 0.125 micrograms per milliliter; MIC Klebsiella pneumoniae ATCC 43816 WT [6]: 0.25 µg/mL (≈ 0.125 µM); MIC K. pneumoniae NCTC 13443 (NDM-1) Parent [7]: 0.5 micrograms per milliliter; MIC Klebsiella pneumoniae NCTC 13443 WT ([7]; Table S9 panel, WT): 1 µg/mL (≈ 0.5 µM); MIC E. coli ATCC 25922 Q62L mutant [8]: 4 micrograms per milliliter; MIC Escherichia coli ATCC 25922 LptA Q62L (7x) ([8]; Table S9 panel): 2 µg/mL (≈ 0.999 µM); Haemolysis % at 0.2 g/L (human red blood cells): 0%; Tolerability in repeat dose safety study [9]: well tolerated with no adverse events or detectable kidney toxicity; fraction unbound at 30 min, 10 mg/liter (Plasma protein binding [10]): 0.19; MIC50 (n=121) [11]: 0.25 µg/mL (≈ 0.125 µM)

From PMC10208570, “Peptidomimetic antibiotics disrupt the lipopolysaccharide transport bridge of drug-resistant Enterobacteriaceae” (Science Advances, 2023)
